Test: recombinant barcode read abundance after kanamycin selection (control-corrected) (log10(CPM+1)); higher = more efficient recombination; sequences stand for … in AGTGCAGAGAAAATCGGCCAGTTTTCTCTGCCTGCAGTCCGCATGCCGT…ATTTATGCAGCGGACTGCCTTTCTCCCAAAGTGATAAACCGGACAGTATCATGGACCGGTTTTCCCGGTAATCCGTATTTGCAAGGTTGGTTTCACT; site = the 11-nt target
Procedure: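 Same pooled E. coli target screen (IS621 bridge recombinase, kanamycin selection, control-corrected CPM, mean of 2 biological replicates). Here the two core-binding nucleotides of the LTG and RTG of the bridge RNA target-binding loop are mutated. Target and donor CT cores are held constant, and the other 9 guide positions match the target. The target is read from the library oligo sequence. Molecule = full bridge RNA written as DNA: nt 1-80 from the library oligo, rest WT scaffold.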

## AGGCCTCCTTGGGTTCTAACCTGTTGCCTGA [AGGCCTCCTAG_LTGcore_CT_RTGcore_TC] (site AGGCCTCCTAG) (LTG core: CT, RTG core: TC)
  recombinant barcode read abundance (log10): 0.578

## AGGCCTCCTTGGGTTCTAACCTGTTGCCTGT [AGGCCTCCTAG_LTGcore_CT_RTGcore_AC] (site AGGCCTCCTAG) (LTG core: CT, RTG core: AC)
  recombinant barcode read abundance (log10): 0.0115

## AGGCCTCGATGGGTTCTAACCTGTTGCCTTC [AGGCCTCCTAG_LTGcore_GA_RTGcore_GA] (site AGGCCTCCTAG) (LTG core: GA, RTG core: GA)
  recombinant barcode read abundance (log10): 0.206

## AGGCCTCGTTGGGTTCTAACCTGTTGCCTAC [AGGCCTCCTAG_LTGcore_GT_RTGcore_GT] (site AGGCCTCCTAG) (LTG core: GT, RTG core: GT)
  recombinant barcode read abundance (log10): 0.0637

## AGGCGGGAATGGGTTCTAACCTGTTGCGGAG [AGGCGGGCTCC_LTGcore_AA_RTGcore_CT] (site AGGCGGGCTCC) (LTG core: AA, RTG core: CT)
  recombinant barcode read abundance (log10): 0.668

## AGGCGGGAGTGGGTTCTAACCTGTTGCGGAG [AGGCGGGCTCC_LTGcore_AG_RTGcore_CT] (site AGGCGGGCTCC) (LTG core: AG, RTG core: CT)
  recombinant barcode read abundance (log10): 0.325

## AGGCGGGCTTGGGTTCTAACCTGTTGCGGCC [AGGCGGGCTCC_LTGcore_CT_RTGcore_GG] (site AGGCGGGCTCC) (LTG core: CT, RTG core: GG)
  recombinant barcode read abundance (log10): 0.367

## AGGCGGGCTTGGGTTCTAACCTGTTGCGGGC [AGGCGGGCTCC_LTGcore_CT_RTGcore_GC] (site AGGCGGGCTCC) (LTG core: CT, RTG core: GC)
  recombinant barcode read abundance (log10): 0.249

## AGGCGGGCTTGGGTTCTAACCTGTTGCGGGT [AGGCGGGCTCC_LTGcore_CT_RTGcore_AC] (site AGGCGGGCTCC) (LTG core: CT, RTG core: AC)
  recombinant barcode read abundance (log10): 0.945

## AGGCGGGCTTGGGTTCTAACCTGTTGCGGTT [AGGCGGGCTCC_LTGcore_CT_RTGcore_AA] (site AGGCGGGCTCC) (LTG core: CT, RTG core: AA)
  recombinant barcode read abundance (log10): 0.0746

## AGGCGGGGCTGGGTTCTAACCTGTTGCGGAG [AGGCGGGCTCC_LTGcore_GC_RTGcore_CT] (site AGGCGGGCTCC) (LTG core: GC, RTG core: CT)
  recombinant barcode read abundance (log10): 0.207

## AGGCGGGGTTGGGTTCTAACCTGTTGCGGAC [AGGCGGGCTCC_LTGcore_GT_RTGcore_GT] (site AGGCGGGCTCC) (LTG core: GT, RTG core: GT)
  recombinant barcode read abundance (log10): 0.0704

## AGGCGGGTCTGGGTTCTAACCTGTTGCGGGA [AGGCGGGCTCC_LTGcore_TC_RTGcore_TC] (site AGGCGGGCTCC) (LTG core: TC, RTG core: TC)
  recombinant barcode read abundance (log10): 0.156

## AGGCGGTATTGGGTTCTAACCTGTTGCTTAG [AGGCGGTCTAA_LTGcore_AT_RTGcore_CT] (site AGGCGGTCTAA) (LTG core: AT, RTG core: CT)
  recombinant barcode read abundance (log10): 0.127

## AGGCGGTCATGGGTTCTAACCTGTTGCTTTG [AGGCGGTCTAA_LTGcore_CA_RTGcore_CA] (site AGGCGGTCTAA) (LTG core: CA, RTG core: CA)
  recombinant barcode read abundance (log10): 0.128

## AGGCGGTCTTGGGTTCTAACCTGTTGCTTAC [AGGCGGTCTAA_LTGcore_CT_RTGcore_GT] (site AGGCGGTCTAA) (LTG core: CT, RTG core: GT)
  recombinant barcode read abundance (log10): 1.26

## AGGCGGTTTTGGGTTCTAACCTGTTGCTTAA [AGGCGGTCTAA_LTGcore_TT_RTGcore_TT] (site AGGCGGTCTAA) (LTG core: TT, RTG core: TT)
  recombinant barcode read abundance (log10): 0.0993

## AGTCTTAATTGGGTTCTAACCTGTTGCCAAG [AGTCTTACTTG_LTGcore_AT_RTGcore_CT] (site AGTCTTACTTG) (LTG core: AT, RTG core: CT)
  recombinant barcode read abundance (log10): 0.295

## AGTCTTACATGGGTTCTAACCTGTTGCCAAG [AGTCTTACTTG_LTGcore_CA_RTGcore_CT] (site AGTCTTACTTG) (LTG core: CA, RTG core: CT)
  recombinant barcode read abundance (log10): 0.033

## AGTCTTACGTGGGTTCTAACCTGTTGCCAAG [AGTCTTACTTG_LTGcore_CG_RTGcore_CT] (site AGTCTTACTTG) (LTG core: CG, RTG core: CT)
  recombinant barcode read abundance (log10): 0.0383

## AGTCTTACTTGGGTTCTAACCTGTTGCCAAA [AGTCTTACTTG_LTGcore_CT_RTGcore_TT] (site AGTCTTACTTG) (LTG core: CT, RTG core: TT)
  recombinant barcode read abundance (log10): 0.0465

## AGTCTTACTTGGGTTCTAACCTGTTGCCACG [AGTCTTACTTG_LTGcore_CT_RTGcore_CG] (site AGTCTTACTTG) (LTG core: CT, RTG core: CG)
  recombinant barcode read abundance (log10): 0.0125

## AGTCTTACTTGGGTTCTAACCTGTTGCCAGC [AGTCTTACTTG_LTGcore_CT_RTGcore_GC] (site AGTCTTACTTG) (LTG core: CT, RTG core: GC)
  recombinant barcode read abundance (log10): 0.13

## AGTCTTACTTGGGTTCTAACCTGTTGCCAGG [AGTCTTACTTG_LTGcore_CT_RTGcore_CC] (site AGTCTTACTTG) (LTG core: CT, RTG core: CC)
  recombinant barcode read abundance (log10): 0.196

## AGTCTTATCTGGGTTCTAACCTGTTGCCAGA [AGTCTTACTTG_LTGcore_TC_RTGcore_TC] (site AGTCTTACTTG) (LTG core: TC, RTG core: TC)
  recombinant barcode read abundance (log10): 0.0509

## ATGCTTTACTGGGTTCTAACCTGTTGCCTAG [ATGCTTTCTAG_LTGcore_AC_RTGcore_CT] (site ATGCTTTCTAG) (LTG core: AC, RTG core: CT)
  recombinant barcode read abundance (log10): 0.0722

## ATGCTTTCATGGGTTCTAACCTGTTGCCTTG [ATGCTTTCTAG_LTGcore_CA_RTGcore_CA] (site ATGCTTTCTAG) (LTG core: CA, RTG core: CA)
  recombinant barcode read abundance (log10): 0.1

## ATGCTTTCGTGGGTTCTAACCTGTTGCCTCG [ATGCTTTCTAG_LTGcore_CG_RTGcore_CG] (site ATGCTTTCTAG) (LTG core: CG, RTG core: CG)
  recombinant barcode read abundance (log10): 0.295

## ATGCTTTCTTGGGTTCTAACCTGTTGCCTAT [ATGCTTTCTAG_LTGcore_CT_RTGcore_AT] (site ATGCTTTCTAG) (LTG core: CT, RTG core: AT)
  recombinant barcode read abundance (log10): 0.128

## ATGCTTTCTTGGGTTCTAACCTGTTGCCTGC [ATGCTTTCTAG_LTGcore_CT_RTGcore_GC] (site ATGCTTTCTAG) (LTG core: CT, RTG core: GC)
  recombinant barcode read abundance (log10): 0.295

## ATGCTTTCTTGGGTTCTAACCTGTTGCCTGT [ATGCTTTCTAG_LTGcore_CT_RTGcore_AC] (site ATGCTTTCTAG) (LTG core: CT, RTG core: AC)
  recombinant barcode read abundance (log10): 0.101

## ATGCTTTCTTGGGTTCTAACCTGTTGCCTTC [ATGCTTTCTAG_LTGcore_CT_RTGcore_GA] (site ATGCTTTCTAG) (LTG core: CT, RTG core: GA)
  recombinant barcode read abundance (log10): 0.0663

## ATGCTTTGGTGGGTTCTAACCTGTTGCCTAG [ATGCTTTCTAG_LTGcore_GG_RTGcore_CT] (site ATGCTTTCTAG) (LTG core: GG, RTG core: CT)
  recombinant barcode read abundance (log10): 0.179

## ATGCTTTGTTGGGTTCTAACCTGTTGCCTAC [ATGCTTTCTAG_LTGcore_GT_RTGcore_GT] (site ATGCTTTCTAG) (LTG core: GT, RTG core: GT)
  recombinant barcode read abundance (log10): 0.302
